Target: D-amino-acid oxidase (Sus scrofa, UniProt P00371)
Test: In vitro D-Amino Acid Oxidase Assay
Conditions: pH 8.5; 22 °C
Procedure: D-amino acid oxidase (DAAO) was assayed in a 96-well plate format. D-serine was oxidatively deaminated by porcine D-amino acid oxidase in the presence of molecular oxygen and flavin […] dinucleotide (FAD) to yield the corresponding alpha-keto acid, ammonia and hydrogen peroxide.

D-amino-acid oxidase, sequence (P00371 whole entry): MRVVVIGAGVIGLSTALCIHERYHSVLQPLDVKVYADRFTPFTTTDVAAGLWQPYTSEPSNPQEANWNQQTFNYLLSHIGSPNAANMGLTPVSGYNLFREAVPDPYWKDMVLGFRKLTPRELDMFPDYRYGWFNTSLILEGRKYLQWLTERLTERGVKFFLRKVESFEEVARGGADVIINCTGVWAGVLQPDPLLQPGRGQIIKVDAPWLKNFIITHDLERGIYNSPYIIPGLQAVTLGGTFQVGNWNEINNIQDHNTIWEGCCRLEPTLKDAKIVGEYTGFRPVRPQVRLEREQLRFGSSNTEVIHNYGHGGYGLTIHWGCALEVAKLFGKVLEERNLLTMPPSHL

IC50: > 100 µM
Compound: O=c1[nH]oc2c1CCCC2 [4,5,6,7-tetrahydrobenzo[d]isoxazol-3-ol]
